In US20200360305A1 (INSERM (Institut National de la Ssnté et de la Researche …, priority 2017, published 2020):
Entries after “also recorded” stand apart in the source; their conditions may differ. Like-named read-outs stand apart in the source and are kept apart here.

Key:
[1] = tested on: polyamine and acetyl coenzyme A metabolism; experiment: Metabolomics analysis of tissues (polyamines, acetyl CoA, TETA metabolites); type: in vivo, mouse; settings: for Acetyl coenzyme A (CoA) levels: liver (FIG. 7C); for Acetyl coenzyme A (CoA) levels / Ratio of N1-acetylspermidine over spermidine (polyamine catabolism): mice upon HFD regimen; for Ratio of N1-acetylspermidine over spermidine (polyamine catabolism): liver, heart or muscle (FIG. 7B)
Experimental: Metabolomics analysis. All standard and reagents used were from Sigma Aldrich except Ammonium carbonate (VWR). For sample preparation, about 30 mg of tissues for each condition were first weighted and solubilized into 1.5 mL polypropylene microcentrifuge tubes with ceramic beads with 1 mL of cold lysate buffer (MeOH/Water/Chloroform, 9/1/1, −20° C.). They were then homogenized three times for 20 s at 5500 rpm using a Precellys 24 tissue homogenator (Bertin Technologies, Montigny-le-Bretonneux, France), followed by a centrifugation (10 min at 15000 g, 4° C.). […] The LC-MS dried extracts were solubilized with 450 μL of MilliQ water and aliquoted in 3 microcentrifuge tubes (100 μL) for each LC method and one microcentrifuge tube for safety. Aliquots for analysis were transferred in LC vials and injected into LC/MS or kept at −80° C. until injection. For sample preparation of polyamines, about 30 mg of tissues for each condition were first weighted and solubilized into 1.5 mL polypropylene microcentrifuge tubes, with 1 mL of cold lysate buffer with 1% sulfosalicylic acid (MeOH /water 1% SSA, 9/1, −20° C.). They were then homogenized three times for 20 s at 5500 rpm using Precellys 24 tissue homogenator (Bertin Technologies, Montigny-le-Bretonneux, France), followed by a centrifugation (10 min at 15000 g, 4° C.). 600 μL of the upper phase of the supernatant was collected and evaporated in microcentrifuge tubes at 40° C. in a pneumatically assisted concentrator (Techne DB3, Staffordshire, UK). The LC-MS dried extracts were solubilized with 300 μL of MilliQ water, centrifugated (10 min at 15000 g, 4° C.), and 50 μL were transferred in polypropylene vial injection for LC method and the rest was transferred in microcentrifuge tube for safety. Aliquots transferred in polypropylene vials were injected into LC/MS or kept at −80° C. until injection. Targeted analysis of CoAs and nucleoside phosphates by ion pairing ultrahigh performance liquid chromatography (UHPLC) coupled to a Triple Quadrupole (QQQ) mass spectrometer was performed on a RRLC 1260 system (Agilent Technologies, Waldbronn, Germany) coupled to a Triple Quadrupole 6410 (Agilent Technologies) equipped with an electrospray source operating in positive mode. The gas temperature was set to 350° C. with a gas flow of 12 L/min. The capillary voltage was set to 3.5 kV.
10 μL of sample were injected on a Column XDB-C18 (100 mm×2.1 mm particle size 1.8 μm) from Agilent technologies, protected by a guard column XDB-C18 (5 mm×2.1 mm particle size 1.8 μm) and heated at 40° C. by a pelletier oven.
The gradient mobile phase consisted of water with 2 mM of DBAA (A) and acetonitrile (B). The flow rate was set to 0.2 mL/min, and gradient as follow: initial condition was 90% phase A and 10% phase B, maintained during 4 min. Molecules were then eluted using a gradient from 10% to 95% phase B over 3 min.

[2] = tested on: invertebrate model organisms; settings: spermidine supplementation; cited from earlier work
[3] = mice, spermidine supplementation; cited from earlier work
[4] = mice on a high fat diet; cited from earlier work
[5] = cited from earlier work
[6] = old mice; cited from earlier work
[7] = ApoE-/- mice fed a high-fat diet for 20 weeks; cited from earlier work
[8] = Dahl salt-sensitive rats, high-salt diet, oral supplementation; cited from earlier work
[9] = in vivo; cited from earlier work
[10] = tested on: Drosophila; settings: cited from earlier work
[11] = mice; cited from earlier work
[12] = mice, model of normal tension glaucoma; cited from earlier work
[13] = old mice; cited from earlier work; remark: listed apart in the source
[14] = tested on: autophagy (LC3-I to LC3-II conversion, p62/SQSTM1 degradation); settings: oral administration (not shown)
Experimental: Tissue processing for Immunoblotting. […] Tissue extracts were then centrifuged at 12,000 g at 4° C. and supernatants were collected. Protein concentration in the supernatants was evaluated by the bicinchoninic acid technique (#23225, BCA protein assay kit). Protein extracts were run on 4-12% Bis-Tris acrylamide gels (# NP0322, Thermo Fisher Scientific) and electrotransferred to […] polyvinylidene fluoride (PVDF) membranes (#1620177,Bio-Rad). […] Equal protein loading was monitored by probing membranes with a glyceraldeyde-3-phosphate dehydrogenase (GAPDH)-specific antibody (#2118, Cell Signaling Technology). Membranes were developed with suitable horseradish peroxidase conjugates followed by chemiluminescence-based detection with the Amersham ECL Prime (# RPN2232, GE Healthcare and the ImageQuant LAS 4000 software-assisted imager (GE Healthcare, Piscataway, N.J., USA). Quantification was performed by densitometry by means of Image J software. Autophagy was quantified through evaluation of LC3-II/GAPDH ratio and SQSTM1/GAPDH ratio in accordance to guidelines.

[15] = Text: Mouse experiments Six-to 7-week-old male WT C57Bl/6 were obtained from Envigo, France. Mice were maintained in specific pathogen-free conditions in a temperature-controlled environment with 12-hr light/12-hr dark cycles and received food and water ad libitum. Animal experiments were in compliance with the EU Directive 63/2010 and protocols 2012_069 and APAFIS #5272-2016042112271931v2 were approved by Ethical Committee of the Gustave Roussy Campus and Cordeliers Research Centre respectively. For weight gain experiments, mice were fed high fat diet (#260HF, Safe, France) or were given 30% sucrose solution in tap water.
[16] = chronic TETA
Experimental: Glucose and Insulin Tolerance Test. For glucose tolerance test (GTT) mice were fasted O/N for 16 hours. 2.5 g/kg/BW glucose solution in PBS was injected intraperitoneally and blood glucose levels was measured by means of glucometer in tail vein blood. Tail snipping was used to obtain blood. Before snips, the tail end was dipped into Bupivicaine (0.25%) for local anesthesia. For the insulin tolerance test (ITT), mice were starved for 4 hours and a solution of 0.75 U/kg/BW insulin was injected intraperitoneally. Blood glucose is measured at 30, 60, and 120 minutes after glucose or insulin injection.

[17] = HFD mice, TETA 8 weeks
Experimental: Plasma cytokine measurements. Plasma was harvested from blood collection tubes by centrifugation at 15,000 rpm for 30 min, and stored at −80° C. Cytokines and levels were measured using a mouse serum adipokine immunoassay kit according to the protocol provided by the manufacturer (Cat. # MMHMAG-44K, EMD Millipore, Temecula, Calif., USA).

[18] = patients, long-term (decades) administration; cited from earlier work
[19] = tested on: N-e-acetylated Lysine residues of proteins; experiment: Quantitative analysis of protein acetylation in tissues (immunofluorescence); settings: mice
[20] = mice with excessive weight gain, chronic TETA (not shown)
[21] = mice with excessive weight gain (HFD, sucrose, ob/ob)

With NCCCCNCCCN [Spermidine, spermidine] the N1-acetylspermidine levels ([1]; liver (FIG. 7A) and all mouse organs (data not shown)) was “increase in N1-acetylspermidine levels”, the “Acetyl coenzyme A (CoA) levels” value [1] was “acetyl coenzyme A (AcCoA) depletion” and the “Acetyl coenzyme A (CoA) levels” value ([1]; listed as spermidine) was “reduced acetyl coenzyme A (CoA) levels”. The “Ratio of N1-acetylspermidine over spermidine (polyamine catabolism)” value [1] was “promote polyamine catabolism”, the “Ratio of N1-acetylspermidine over spermidine (polyamine catabolism)” value ([1]; listed as spermidine) was “increased the ratio” and the “Spermidine level in organs” value ([1]; mice, after spermidine administration) was “increase of this polyamine in most organs except plasma”. The Longevity [2] was “extends the longevity”, the Longevity [3] was “extends the longevity” and the Glucose tolerance [4] was “improved”. The Insulin sensitivity [4] was “improved”, the Weight gain [4] was “reduced weigh gain” and the Cardiac aging ([5]; aging mice, chronic administration) was “protects from cardiac aging”. The “Diastolic function, left ventricular elasticity, and mitochondrial function” value ([5]; old mice) was “improves”, the Age-induced arterial stiffness [6] was “reversed age-induced arterial stiffness” and the “Formation of atherosclerotic plaques” value [7] was “alleviated the formation of atherosclerotic plaques”. The Blood pressure [8] was “reduced high blood pressure”, the “Transition to heart failure” value [8] was “delayed the transition to heart failure” and the Anticancer immune response [9] was “enhance the anticancer immune response”. The Age-induced memory impairment [10] was “protects from age-induced memory impairment”, the “Loss of locomotor activity” value [10] was “protects from” and the “Signs of pathology in experimental autoimmune encephalomyelitis” value [11] was “attenuates signs of pathology”. For the same compound, the Retinal degeneration [12] was “blunts retinal degeneration” and the “Spatial learning and memory capabilities” value [13] was “improves spatial learning and memory capabilities”.

In the case of NCCNCCNCCN [TETA, N,N′-Bis(2-aminoethyl)ethane-1,2-diamine], the “Signs of autophagy in several mouse organs” value [14] is reported as “induced signs of autophagy”, the “Accumulation of intestinal and perigonadal adipose tissue” value [15, 20] is reported as “reduced accumulation of intestinal and perigonadal adipose tissue” and the “Fat accumulation in the liver” value [15, 20] is reported as “reduced fat accumulation in the liver”. For the same compound, the Weight gain ([15]; normal mice on a high-fat diet, TETA in drinking water) was “reduced the accelerated weight gain”, the Weight gain ([15]; normal mice on a high-sucrose diet (30% sucrose in drinking water), TETA per os 100 mg/kg) was “reduced the accelerated weight gain” and the Weight gain ([15]; ob/ob mice) was “reduced the accelerated weight gain”. The Weight gain ([15]; wild type mice on standard chow, TETA in drinking water or by gavage) was “failed to affect the physiological weight gain”, the Glucose tolerance test ([16]; WT mice fed a normal diet) was “had no effect” and the Insulin tolerance test ([16]; WT mice fed a normal diet) was “had no effect”. The “Plasma glucose concentration after intraperitoneal glucose (GTT)” value [16, 21] was “reduced the plasma glucose concentration”, the “Transient decrease in glycemia after injection of insulin (ITT)” value [16, 21] was “enhanced the transient decrease in glycemia” and the “Plasma C-peptide” value [17] was “prevented the HFD-induced elevation”. The “Plasma IGFBP1” value [17] was “prevented the HFD-induced elevation”, the Plasma adiponectin levels [17] was “increased the adiponectin levels” and the “Plasma gastric inhibitory peptide (GIP)” value [17] was “prevented the HFD-induced elevation”. The Plasma insulin [17] was “prevented the HFD-induced elevation”, the Plasma leptin [17] was “prevented the HFD-induced elevation” and the “Plasma plasminogen activator inhibitor-1 (PAI-1)” value [17] was “prevented the HFD-induced elevation”. For the same compound, the Plasma resistin [17] was “prevented the HFD-induced elevation”, the Side effects [18] was “side effects are mild” and the “Protein acetylation in heart (cardiomyocytes)” value [19] was “reduces protein acetylation; also recorded: reduction in protein acetylation”. For the same compound, the “Protein acetylation in liver (hepatocytes)” value [19] was “reduces protein acetylation; also recorded: reduction in protein acetylation”.
